Patent US20250034216A1, “STEREOSELECTIVE COVALENT LIGANDS FOR ONCOGENIC AND IMMUNOLOGICAL PROTEINS” (The Scripps Research Institute, priority 2021, published 2025)

Tests used:
Experiment in all cases: IA-DTB cysteine engagement
Format in all cases: binding
Conditions in all cases: 22Rv1 cells, 20 μM probe, 1 h, relative to DMSO
LRPPRC_C571 = target: T1, LRPPRC_C571 (Homo sapiens, UniProt P42704)
T1 construct: endogenous in cells; host or cells: 22Rv1
Outline: (§1)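 Probe-exposed cells were lysed, IA-DTB-labeled, trypsinized and streptavidin-enriched. Multiplexed TMT quantitation gave engagement ratios versus DMSO, with non-tryptic peptides excluded and intensities normalized to median summed signal.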

EPB42_C586 = target: T2, EPB42_C586 (Homo sapiens, UniProt P16452)
T2 construct: endogenous in cells; host or cells: 22Rv1
T2 sequence (P16452 1-691): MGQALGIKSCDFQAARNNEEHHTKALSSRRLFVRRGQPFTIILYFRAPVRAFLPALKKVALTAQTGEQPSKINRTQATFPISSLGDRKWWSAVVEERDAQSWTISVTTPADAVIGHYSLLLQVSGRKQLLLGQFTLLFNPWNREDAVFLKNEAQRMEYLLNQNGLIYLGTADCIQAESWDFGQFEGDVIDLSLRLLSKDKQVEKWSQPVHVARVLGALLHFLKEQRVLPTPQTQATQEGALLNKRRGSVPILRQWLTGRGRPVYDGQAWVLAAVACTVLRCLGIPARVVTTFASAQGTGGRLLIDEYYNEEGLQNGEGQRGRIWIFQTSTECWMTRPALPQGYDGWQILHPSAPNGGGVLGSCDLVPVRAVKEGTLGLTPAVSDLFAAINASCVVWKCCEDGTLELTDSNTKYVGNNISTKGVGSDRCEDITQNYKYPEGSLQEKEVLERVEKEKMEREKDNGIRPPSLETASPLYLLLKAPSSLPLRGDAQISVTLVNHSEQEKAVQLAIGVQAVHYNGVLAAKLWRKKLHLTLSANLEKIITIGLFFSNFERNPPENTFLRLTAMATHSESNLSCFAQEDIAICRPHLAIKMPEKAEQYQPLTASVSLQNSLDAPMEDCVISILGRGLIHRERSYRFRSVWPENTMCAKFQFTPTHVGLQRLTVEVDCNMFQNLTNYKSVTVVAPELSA
Outline: as §1

ANGEL1_C27 = target: T3, ANGEL1_C27 (Homo sapiens, UniProt Q9UNK9)
T3 construct: endogenous in cells; host or cells: 22Rv1
T3 sequence (Q9UNK9 1-670): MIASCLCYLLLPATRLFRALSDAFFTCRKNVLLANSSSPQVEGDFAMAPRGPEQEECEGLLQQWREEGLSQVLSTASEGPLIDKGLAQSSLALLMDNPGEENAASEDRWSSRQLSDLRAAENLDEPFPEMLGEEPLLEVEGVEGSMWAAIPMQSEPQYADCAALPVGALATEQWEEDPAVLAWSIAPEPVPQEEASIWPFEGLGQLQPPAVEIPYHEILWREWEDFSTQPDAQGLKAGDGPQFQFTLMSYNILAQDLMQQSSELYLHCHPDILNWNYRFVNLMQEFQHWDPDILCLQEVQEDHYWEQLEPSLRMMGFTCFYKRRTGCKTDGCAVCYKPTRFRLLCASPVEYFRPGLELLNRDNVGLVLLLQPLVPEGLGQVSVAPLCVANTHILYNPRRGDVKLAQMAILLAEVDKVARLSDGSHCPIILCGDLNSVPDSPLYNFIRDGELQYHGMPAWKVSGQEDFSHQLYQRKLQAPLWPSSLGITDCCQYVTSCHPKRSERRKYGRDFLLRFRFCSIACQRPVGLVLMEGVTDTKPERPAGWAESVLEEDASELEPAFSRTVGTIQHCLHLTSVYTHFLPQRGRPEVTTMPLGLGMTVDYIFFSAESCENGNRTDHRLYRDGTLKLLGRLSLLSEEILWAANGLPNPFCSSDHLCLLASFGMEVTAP
Outline: as §1

ITPR2_C292 = target: T4, ITPR2_C292 (Homo sapiens, UniProt Q14571)
T4 construct: endogenous in cells; host or cells: 22Rv1
Outline: as §1

T4 sequence (Q14571 whole entry): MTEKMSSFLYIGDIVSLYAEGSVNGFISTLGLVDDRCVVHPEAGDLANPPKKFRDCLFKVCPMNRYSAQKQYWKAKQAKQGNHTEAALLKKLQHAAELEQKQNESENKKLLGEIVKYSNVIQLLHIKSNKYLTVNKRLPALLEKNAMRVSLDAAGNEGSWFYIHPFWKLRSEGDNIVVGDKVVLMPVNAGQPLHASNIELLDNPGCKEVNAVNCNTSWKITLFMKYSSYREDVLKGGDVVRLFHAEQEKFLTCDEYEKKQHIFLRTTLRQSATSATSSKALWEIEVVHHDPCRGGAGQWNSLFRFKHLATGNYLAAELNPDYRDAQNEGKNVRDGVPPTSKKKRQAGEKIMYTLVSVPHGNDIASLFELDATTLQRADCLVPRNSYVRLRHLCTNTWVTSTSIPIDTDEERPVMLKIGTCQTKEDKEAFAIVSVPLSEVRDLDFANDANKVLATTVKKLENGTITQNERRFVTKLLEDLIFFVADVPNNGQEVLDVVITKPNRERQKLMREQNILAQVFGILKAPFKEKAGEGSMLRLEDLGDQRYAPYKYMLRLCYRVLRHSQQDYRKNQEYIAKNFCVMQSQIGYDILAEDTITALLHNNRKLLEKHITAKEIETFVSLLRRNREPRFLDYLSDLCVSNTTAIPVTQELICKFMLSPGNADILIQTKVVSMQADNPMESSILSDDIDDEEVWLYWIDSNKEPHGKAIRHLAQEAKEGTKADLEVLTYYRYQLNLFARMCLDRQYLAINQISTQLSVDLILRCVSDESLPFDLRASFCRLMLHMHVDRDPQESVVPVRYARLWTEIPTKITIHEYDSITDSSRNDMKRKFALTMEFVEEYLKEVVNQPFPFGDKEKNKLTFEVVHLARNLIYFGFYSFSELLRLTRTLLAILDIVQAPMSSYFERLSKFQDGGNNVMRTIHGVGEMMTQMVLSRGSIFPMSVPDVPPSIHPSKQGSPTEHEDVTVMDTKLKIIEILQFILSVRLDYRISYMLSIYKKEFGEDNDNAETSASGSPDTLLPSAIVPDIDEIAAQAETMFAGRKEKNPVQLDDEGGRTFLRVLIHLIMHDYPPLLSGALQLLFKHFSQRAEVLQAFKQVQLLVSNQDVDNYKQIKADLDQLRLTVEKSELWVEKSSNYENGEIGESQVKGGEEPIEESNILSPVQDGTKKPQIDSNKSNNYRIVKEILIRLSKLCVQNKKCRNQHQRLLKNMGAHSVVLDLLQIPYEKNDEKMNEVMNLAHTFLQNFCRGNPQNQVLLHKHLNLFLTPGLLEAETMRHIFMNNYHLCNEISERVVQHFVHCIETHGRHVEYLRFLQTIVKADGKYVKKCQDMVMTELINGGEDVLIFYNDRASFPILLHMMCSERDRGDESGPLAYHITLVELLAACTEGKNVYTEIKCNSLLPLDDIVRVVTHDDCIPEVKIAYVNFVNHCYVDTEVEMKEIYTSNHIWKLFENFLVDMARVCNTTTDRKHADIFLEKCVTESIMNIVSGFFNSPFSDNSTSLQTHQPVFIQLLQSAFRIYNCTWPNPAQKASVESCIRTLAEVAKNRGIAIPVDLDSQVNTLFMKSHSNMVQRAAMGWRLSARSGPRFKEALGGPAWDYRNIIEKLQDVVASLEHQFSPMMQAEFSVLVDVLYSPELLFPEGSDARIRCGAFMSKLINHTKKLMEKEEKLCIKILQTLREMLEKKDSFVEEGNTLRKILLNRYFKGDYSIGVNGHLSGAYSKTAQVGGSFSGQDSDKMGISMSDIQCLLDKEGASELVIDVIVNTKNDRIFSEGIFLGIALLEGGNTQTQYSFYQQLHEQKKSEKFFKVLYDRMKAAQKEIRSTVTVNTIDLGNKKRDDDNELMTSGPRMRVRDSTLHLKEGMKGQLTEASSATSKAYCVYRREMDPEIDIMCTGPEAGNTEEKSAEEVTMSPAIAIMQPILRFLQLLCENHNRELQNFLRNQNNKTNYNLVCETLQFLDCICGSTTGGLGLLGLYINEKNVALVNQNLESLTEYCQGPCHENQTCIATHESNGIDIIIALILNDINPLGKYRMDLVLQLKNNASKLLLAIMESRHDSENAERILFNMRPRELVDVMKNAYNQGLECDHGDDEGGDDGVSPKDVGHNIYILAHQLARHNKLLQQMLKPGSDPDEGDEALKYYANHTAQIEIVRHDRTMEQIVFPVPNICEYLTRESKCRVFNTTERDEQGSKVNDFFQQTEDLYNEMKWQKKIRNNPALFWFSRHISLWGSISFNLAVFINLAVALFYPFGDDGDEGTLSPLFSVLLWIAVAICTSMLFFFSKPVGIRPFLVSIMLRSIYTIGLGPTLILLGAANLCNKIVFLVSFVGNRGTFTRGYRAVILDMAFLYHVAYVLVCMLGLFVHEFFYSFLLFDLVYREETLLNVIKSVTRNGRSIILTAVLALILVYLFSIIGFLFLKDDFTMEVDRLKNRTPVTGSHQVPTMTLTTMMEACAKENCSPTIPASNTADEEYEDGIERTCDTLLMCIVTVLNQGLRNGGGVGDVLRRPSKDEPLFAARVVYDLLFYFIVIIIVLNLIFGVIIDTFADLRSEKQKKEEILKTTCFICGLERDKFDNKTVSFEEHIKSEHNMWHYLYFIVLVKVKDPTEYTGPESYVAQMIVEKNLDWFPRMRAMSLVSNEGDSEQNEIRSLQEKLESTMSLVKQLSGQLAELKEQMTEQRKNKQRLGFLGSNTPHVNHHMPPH

Compound	% engagement LRPPRC_C571 (LRPPRC_C571) [%]	% engagement EPB42_C586 (EPB42_C586) [%]	% engagement ANGEL1_C27 (ANGEL1_C27) [%]	% engagement ITPR2_C292 (ITPR2_C292) [%]
C=CC(=O)N1C[C@H](c2ccc(Br)cc2)[C@@H]1C(=O)Nc1cccc2cccnc12 [MY-1B, (2R,3S)-1-acryloyl-3-(4-bromophenyl)-N-(quinolin-8-yl)azetidine-2-carboxamide]	7	33.5	66.5	70
C=CC(=O)N1C[C@H](c2ccc(Br)cc2)[C@H]1C(=O)Nc1cccc2cccnc12 [MY-3B, (2S,3S)-1-acryloyl-3-(4-bromophenyl)-N-(quinolin-8-yl)azetidine-2-carboxamide]	5	43.5	54.5	50.5
C=CC(=O)N1C[C@H](c2ccc(Br)cc2)[C@H]1C(=O)Nc1cccc2cccnc12 [MY-3A, (2S,3S)-1-acryloyl-3-(4-bromophenyl)-N-(quinolin-8-yl)azetidine-2-carboxamide]	20	66.5	45.5	48.5
C=CC(=O)N1C[C@@H](c2ccc(Br)cc2)[C@H]1C(=O)Nc1cccc2cccnc12 [MY-1A, (2S,3R)-1-acryloyl-3-(4-bromophenyl)-N-(quinolin-8-yl)azetidine-2-carboxamide]	73.5	55	63	24.5
